IC50 data for 24 molecules are collected here from patent US11407737B2, “Inhibitors of RAF kinases” (Kinnate Biopharma Inc., priority 2020, dated 2022).

Counter-ions that a name gives are not always drawn.

The assay addresses human RAF1 (Homo sapiens (Human), UniProt P04049). Nature of the assay: Protein kinase assay (radiometric 33P-ATP, MEK1 (K97R) substrate), RAF-1. Type of assay: biochemical. To be noted: human MEK1 (K97R) substrate 3 micromolar, ATP 10 micromolar; 10-dose, 3-fold serial dilution starting at 10 micromolar; read-out: RAF-1 IC50. How it is done:
Example 1: Kinase Assay Protocol
Assay platform was used to measure kinase/inhibitor interactions as described previously (Anastassiadis et al., 2011). In brief, for each reaction, kinase and substrate were mixed in a buffer containing 20 mM HEPES (pH 7.5), 10 mM MgCl2, 1 mM EGTA, 0.02% Brij35, 0.02 mg/mL BSA, 0.1 mM Na3VO4, 2 mM DTT, and 1% DMSO. All compounds were solubilized in DMSO. Compounds were then added to each reaction mixture via acoustic dispense using an ECHO 550 nanoliter dispenser. For human RAF1 testing, human MEK1 (K97R) was used as a substrate at a concentration of 3 micromolar, with a final ATP concentration of 10 micromolar. For human BRAF testing, human MEK1 (K97R) was used as a substrate at 1 micromolar concentration, with a final ATP concentration of 25 micromolar. […] After a 20-min incubation, ATP (Sigma-Aldrich, St. Louis, Mo. 63178) and [g33P] ATP (specific activity 10 microCi/microliter) purchased at PerkinElmer (Boston, Mass., 02118 Cat #BLU 003H250UC) were added at a final total concentration of […]. Reactions were carried out at room temperature for 2 hr and spotted onto P81 ion exchange cellulose chromatography paper (Reaction Biology). Filter paper was washed in 0.75% phosphoric acid to remove unincorporated ATP. The percent remaining kinase activity relative to a vehicle-containing (DMSO) kinase reaction was calculated for each kinase/inhibitor pair. IC50 values were calculated using Prism 5 (GraphPad).

Sequence of human RAF1 (P04049 whole entry): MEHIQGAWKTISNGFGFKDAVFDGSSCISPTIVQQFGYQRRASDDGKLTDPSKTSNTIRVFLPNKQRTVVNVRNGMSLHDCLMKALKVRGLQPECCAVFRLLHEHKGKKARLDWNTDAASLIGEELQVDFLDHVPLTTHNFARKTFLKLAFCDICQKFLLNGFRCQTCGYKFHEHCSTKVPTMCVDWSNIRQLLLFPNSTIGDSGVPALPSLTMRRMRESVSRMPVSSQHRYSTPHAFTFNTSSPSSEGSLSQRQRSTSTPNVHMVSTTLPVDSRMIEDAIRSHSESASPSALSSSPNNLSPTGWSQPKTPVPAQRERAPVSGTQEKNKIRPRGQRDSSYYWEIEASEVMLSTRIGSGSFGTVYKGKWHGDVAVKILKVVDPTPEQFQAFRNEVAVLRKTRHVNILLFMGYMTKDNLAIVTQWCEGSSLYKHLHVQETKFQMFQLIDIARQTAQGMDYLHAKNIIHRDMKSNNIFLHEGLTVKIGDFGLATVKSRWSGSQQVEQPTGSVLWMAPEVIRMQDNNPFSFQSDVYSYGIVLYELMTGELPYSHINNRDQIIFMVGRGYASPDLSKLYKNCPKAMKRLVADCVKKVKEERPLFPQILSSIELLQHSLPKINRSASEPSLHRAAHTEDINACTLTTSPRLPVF

Take `Cc1cc(F)c(NC(=O)N2CCO[C@@H](C(F)(F)F)C2)cc1-c1cc(-c2cnn(C)c2)nc(N2CCOCC2)c1` [Example 68, (2R)—N-{2-fluoro-4-methyl-5-[2-(1-methylpyrazol-4-yl)-6-(morpholin-4-yl)pyridin-4-yl]phenyl}-2-(trifluoromethyl)morpholine-4-carboxamide]: the IC50 is less than 1 nM.

Take `Cc1ccc(NC(=O)N2CC[C@@H](CC(F)(F)F)C2)cc1-c1cc(-c2cnn(C)c2)nc(N2CCOCC2)c1` [Example 22, (3S)—N-[4-methyl-3-[2-(1-methylpyrazol-4-yl)-6-(morpholin-4-yl)pyridin-4-yl]phenyl]-3-(2,2,2-trifluoroethyl)pyrrolidine-1-carboxamide]: the 50% inhibitory concentration (IC50) was less than 1 nM.

`CNC(=O)c1cc(-c2cc(NC(=O)N3CC[C@@H](CC(F)(F)F)C3)ccc2C)cc(N2CCOCC2)n1` [Example 3, N-methyl-4-[2-methyl-5-[(3S)-3-(2,2,2-trifluoroethyl)pyrrolidine-1-carbonylamino]phenyl]-6-(morpholin-4-yl)pyridine-2-carboxamide]: the IC50 was in the range of 1 to 10 nM.

On to `Cc1ccc(NC(=O)N2CC[C@@H](CC(F)(F)F)C2)cc1-c1cc(C2CCNC2)nc(N2CCOCC2)c1` (stereo partly drawn) [Example 34, (3S)—N-[4-methyl-3-[2-(morpholin-4-yl)-6-(pyrrolidin-3-yl)pyridin-4-yl]phenyl]-3-(2,2,2-trifluoroethyl)pyrrolidine-1-carboxamide], for which the IC50 is less than 1 nM.

Consider `Cc1cc(-c2cc(NC(=O)N3CC[C@@H](CC(F)(F)F)C3)c(F)cc2C)cc(N2CCOCC2)n1` [Example 70, (3S)—N-{2-fluoro-4-methyl-5-[2-methyl-6-(morpholin-4-yl)pyridin-4-yl]phenyl}-3-(2,2,2-trifluoroethyl)pyrrolidine-1-carboxamide], for which the IC50 was less than 1 nM.

Regarding `Cc1ccc(NC(=O)N2CC[C@@H](CC(F)(F)F)C2)cc1-c1cc(-c2c(C)n[nH]c2C)nc(N2CCOCC2)c1` [Example 51, (3S)—N-[3-[2-(3,5-dimethyl-1H-pyrazol-4-yl)-6-(morpholin-4-yl)pyridin-4-yl]-4-methylphenyl]-3-(2,2,2-trifluoroethyl)pyrrolidine-1-carboxamide], the IC50 lay within 1 to 10 nM.

`Cc1ccc(NC(=O)N2CC[C@@H](CC(F)(F)F)C2)cc1-c1cc(C(=O)NCC(C)(C)O)nc(N2CCOCC2)c1` [Example 9, N-(2-hydroxy-2-methylpropyl)-4-[2-methyl-5-[(3S)-3-(2,2,2-trifluoroethyl)pyrrolidine-1-carbonylamino]phenyl]-6-(morpholin-4-yl)pyridine-2-carboxamide]: the 50% inhibitory concentration (IC50) lay in the range of 1 to 10 nM.

`Cc1cc(F)c(NC(=O)N2CC=C(C(F)(F)F)C2)cc1-c1cc(-c2ccnn2C)nc(N2CCOCC2)c1` [Example 73, N-{2-fluoro-4-methyl-5-[2-(2-methylpyrazol-3-yl)-6-(morpholin-4-yl)pyridin-4-yl]phenyl}-3-(trifluoromethyl)-2,5-dihydropyrrole-1-carboxamide]: the IC50 was less than 1 nM.

Regarding `Cc1ccc(NC(=O)N2CC[C@@H](CC(F)(F)F)C2)cc1-c1cc(C(=O)N2CC(O)C2)nc(N2CCOCC2)c1` [Example 20, (3S)—N-[3-[2-(3-hydroxyazetidine-1-carbonyl)-6-(morpholin-4-yl)pyridin-4-yl]-4-methylphenyl]-3-(2,2,2-trifluoroethyl)pyrrolidine-1-carboxamide], the half-inhibitory concentration (IC50) was less than 1 nM.

For `Cc1ccc(NC(=O)N2CC[C@@H](CC(F)(F)F)C2)cc1-c1cc(-c2cc(C)n(C)n2)nc(N2CCOCC2)c1` [Example 52, (3S)—N-[3-[2-(1,5-dimethylpyrazol-3-yl)-6-(morpholin-4-yl)pyridin-4-yl]-4-methylphenyl]-3-(2,2,2-trifluoroethyl)pyrrolidine-1-carboxamide], the IC50 fell in the range of 1 to 10 nM.

On to `Cc1ccc(NC(=O)N2CCO[C@@H](C(F)(F)F)C2)cc1-c1cc(-c2cnn(C)c2)nc(N2CCOCC2)c1` [Example 63, (2R)—N-{4-methyl-3-[2-(1-methylpyrazol-4-yl)-6-(morpholin-4-yl)pyridin-4-yl]phenyl}-2-(trifluoromethyl)morpholine-4-carboxamide], for which the IC50 lay within 1 to 10 nM.

Regarding `Cc1cc(F)c(NC(=O)N2CC[C@@H](C(F)(F)F)C2)cc1-c1cc(-c2cnn(C)c2)nc(N2CCOCC2)c1` [Example 75, (3R)—N-{2-fluoro-4-methyl-5-[2-(1-methylpyrazol-4-yl)-6-(morpholin-4-yl)pyridin-4-yl]phenyl}-3-(trifluoromethyl)pyrrolidine-1-carboxamide], the half-maximal inhibitory concentration (IC50) was less than 1 nM.

With `Cc1ccc(NC(=O)N2CC[C@@H](CC(F)(F)F)C2)cc1-c1cc(C2CCN(C)CC2)nc(N2CCOCC2)c1` [Example 39, (S)—N-(4-methyl-3-(2-(1-methylpiperidin-4-yl)-6-morpholinopyridin-4-yl)phenyl)-3-(2,2,2-trifluoroethyl)pyrrolidine-1-carboxamide formate], the concentration for half-maximal inhibition (IC50) fell in the range of 1 to 10 nM.

As for `Cc1ccc(NC(=O)N2CC[C@@H](CC(F)(F)F)C2)cc1-c1cc(-c2cscn2)nc(N2CCOCC2)c1` [Example 42, (3S)—N-[4-methyl-3-[2-(morpholin-4-yl)-6-(1,3-thiazol-4-yl)pyridin-4-yl]phenyl]-3-(2,2,2-trifluoroethyl)pyrrolidine-1-carboxamide], the concentration for half-maximal inhibition (IC50) fell in the range of 1 to 10 nM.

For the molecule `Cc1ccc(NC(=O)N2CC[C@@H](CC(F)(F)F)C2)cc1-c1cc(N2CCOCC2)nc(C(F)(F)F)c1` [Example 56, (3S)—N-[4-methyl-3-[2-(morpholin-4-yl)-6-(trifluoromethyl)pyridin-4-yl]phenyl]-3-(2,2,2-trifluoroethyl)pyrrolidine-1-carboxamide], the IC50 was 1 to 10 nM.

Consider `Cc1ccc(NC(=O)N2CC[C@@H](OC(F)(F)F)C2)cc1-c1cc(-c2cnn(C)c2)nc(N2CCOCC2)c1` [Example 64, (3R)—N-{4-methyl-3-[2-(1-methylpyrazol-4-yl)-6-(morpholin-4-yl)pyridin-4-yl]phenyl}-3-(trifluoromethoxy)pyrrolidine-1-carboxamide], for which the IC50 lay in the range of 1 to 10 nM.

Turning to `Cc1ccc(NC(=O)N2CC[C@@H](CC(F)(F)F)C2)cc1-c1cc(-c2ccnc(N)n2)nc(N2CCOCC2)c1` [Example 45, (3S)—N-[3-[2-(2-aminopyrimidin-4-yl)-6-(morpholin-4-yl)pyridin-4-yl]-4-methylphenyl]-3-(2,2,2-trifluoroethyl)pyrrolidine-1-carboxamide], the half-maximal inhibitory concentration (IC50) fell in the range of 1 to 10 nM.

As for `Cc1cc(F)c(NC(=O)N2CC[C@@H](CC(F)(F)F)C2)cc1-c1cc(-c2cnn(C)c2)nc(N2CCOCC2)c1` [Example 74, (3S)—N-{2-fluoro-4-methyl-5-[2-(1-methylpyrazol-4-yl)-6-(morpholin-4-yl)pyridin-4-yl]phenyl}-3-(2,2,2-trifluoroethyl)pyrrolidine-1-carboxamide], the half-inhibitory concentration (IC50) is less than 1 nM.

Consider `Cc1cc(-c2cc(-c3cc(NC(=O)N4CC[C@@H](CC(F)(F)F)C4)ccc3C)cc(N3CCOCC3)n2)n(C)n1` [Example 50, (3S)—N-[3-[2-(2,5-dimethylpyrazol-3-yl)-6-(morpholin-4-yl)pyridin-4-yl]-4-methylphenyl]-3-(2,2,2-trifluoroethyl)pyrrolidine-1-carboxamide], for which the IC50 was in the range of 1 to 10 nM.

Regarding `Cc1ccc(NC(=O)N2CC[C@@H](CC(F)(F)F)C2)cc1-c1cc(/C=C/[C@@H](C)O)nc(N2CCOCC2)c1` [Example 17, (3S)—N-(3-[2-[(1E,3R)-3-hydroxybut-1-en-1-yl]-6-(morpholin-4-yl)pyridin-4-yl]-4-methylphenyl)-3-(2,2,2-trifluoroethyl)pyrrolidine-1-carboxamide], the half-maximal inhibitory concentration (IC50) lay within 1 to 10 nM.

Turning to `Cc1ccc(NC(=O)N2CC[C@@H](CC(F)(F)F)C2)cc1-c1cc(C(N)=O)nc(N2CCOCC2)c1` [Example 2, 4-[2-methyl-5-[(3S)-3-(2,2,2-trifluoroethyl)pyrrolidine-1-carbonylamino]phenyl]-6-(morpholin-4-yl)pyridine-2-carboxamide], the IC50 fell in the range of 1 to 10 nM.

Take `Cc1ccc(NC(=O)N2CC[C@@H](CC(F)(F)F)C2)cc1-c1cc(-c2c[nH]nc2C)nc(N2CCOCC2)c1` [Example 47, (3S)—N-[4-methyl-3-[2-(3-methyl-1H-pyrazol-4-yl)-6-(morpholin-4-yl)pyridin-4-yl]phenyl]-3-(2,2,2-trifluoroethyl)pyrrolidine-1-carboxamide]: the IC50 fell in the range of 1 to 10 nM.

As for `Cc1ccc(NC(=O)N2CC[C@@H](CC(F)(F)F)C2)cc1-c1cc(-c2cn(C)cn2)nc(N2CCOCC2)c1` [Example 54, (3S)—N-{4-methyl-3-[2-(1-methylimidazol-4-yl)-6-(morpholin-4-yl)pyridin-4-yl]phenyl}-3-(2,2,2-trifluoroethyl)pyrrolidine-1-carboxamide], the IC50 lay within 1 to 10 nM.

For the molecule `Cc1ccc(NC(=O)N2CC[C@@H](CC(F)(F)F)C2)cc1-c1cc(-c2cncn2C)nc(N2CCOCC2)c1` [Example 16, (3S)—N-[4-methyl-3-[2-(3-methylimidazol-4-yl)-6-(morpholin-4-yl)pyridin-4-yl]phenyl]-3-(2,2,2-trifluoroethyl)pyrrolidine-1-carboxamide], the 50% inhibitory concentration (IC50) was 1 to 10 nM.

As usually defined, the IC50 is the concentration that inhibits the measured activity by half.
